Laboratory results taken from US6153651A, “Ortho-substituted benzoylguanidines, process for their preparation, their use as a medicament or diagnostic, and medicament comprising them” (Hoechst Aktiengesellschaft, priority 1996, dated 2000).
Counter-ions that a name gives are not always drawn.

Biological target: T1, rabbit erythrocyte Na^+ /H^+ exchanger (Oryctolagus cuniculus, UniProt P23791)
T1 construct: endogenous in cells; host or cells: rabbit erythrocytes (whole heparinized blood of cholesterol-fed New Zealand White rabbits, Ivanovas)
T1 sequence (P23791 whole entry): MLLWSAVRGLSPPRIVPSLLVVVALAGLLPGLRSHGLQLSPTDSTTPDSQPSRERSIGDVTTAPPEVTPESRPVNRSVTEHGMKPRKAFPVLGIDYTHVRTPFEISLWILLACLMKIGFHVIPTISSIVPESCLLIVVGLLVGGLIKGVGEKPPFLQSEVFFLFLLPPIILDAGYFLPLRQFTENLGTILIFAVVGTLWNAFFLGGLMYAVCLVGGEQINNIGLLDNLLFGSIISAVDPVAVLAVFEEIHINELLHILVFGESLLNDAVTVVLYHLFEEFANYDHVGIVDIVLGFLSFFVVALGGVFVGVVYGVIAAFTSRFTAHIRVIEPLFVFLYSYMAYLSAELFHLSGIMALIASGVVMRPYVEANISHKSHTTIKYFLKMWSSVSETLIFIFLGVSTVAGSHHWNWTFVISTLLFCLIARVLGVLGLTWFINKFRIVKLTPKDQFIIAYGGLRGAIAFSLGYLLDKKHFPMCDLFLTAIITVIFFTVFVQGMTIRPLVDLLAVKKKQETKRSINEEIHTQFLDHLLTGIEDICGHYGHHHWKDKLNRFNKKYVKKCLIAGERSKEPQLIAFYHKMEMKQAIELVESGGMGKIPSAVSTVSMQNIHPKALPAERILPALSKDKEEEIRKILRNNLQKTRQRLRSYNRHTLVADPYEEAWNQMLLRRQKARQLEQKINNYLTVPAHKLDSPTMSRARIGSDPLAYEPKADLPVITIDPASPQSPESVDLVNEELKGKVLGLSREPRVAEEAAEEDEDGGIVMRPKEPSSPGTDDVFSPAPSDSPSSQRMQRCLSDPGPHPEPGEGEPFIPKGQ
Assay: Inhibition of the rabbit erythrocyte Na^+ /H^+ exchanger (amiloride-sensitive Na^+ influx, flame photometry)
Format: cell-based, rabbit (New Zealand White)
Conditions: erythrocytes of rabbits fed 2% cholesterol for six weeks; pH 7.4, 37° C., hyperosmolar salt/sucrose medium
Text: Inhibition of the rabbit erythrocyte Na^+ /H^+ exchanger New Zealand White rabbits (Ivanovas) were given a standard diet containing 2% cholesterol for six weeks in order to activate Na^+ /H^+ exchange and thus render it possible to use flame photometry to determine the influx of Na+into the erythrocytes by way of Na^+ /H^+ exchange. The blood was withdrawn from the aural arteries and rendered incoagulable by adding 25 IU of potassium heparin. A part of each sample was used for determining the hematocrit in duplicate by means of centrifugation. Aliquots of in each case 100 μl were used to measure the initial content of Na^+ in the erythrocytes.
In order to determine the amiloride-sensitive sodium influx, 100 μl of each blood sample were in each case incubated, at pH 7.4 and 37° C., in 5 ml of a hyperosmolar salt/sucrose medium (mmol/l: 140 NaCl, 3 KCl, 150 sucrose, 0.1 ouabain, 20 tris(hydroxymethyl)aminomethane). After that, the erythrocytes were washed three times with an ice cold solution of MgCl2 /ouabain (mmol/l: 112 MgCl2, 0.1 ouabain) and hemolyzed in 2.0 ml of distilled water. The intracellular content of sodium was determined by flame photometry.
The net influx of Na^+ was calculated from the difference between the initial sodium values and the sodium content of the erythrocytes after incubation. The amiloride-inhibitable sodium influx was obtained from the difference in the sodium content of the erythrocytes after incubation with and without 3×10^-4 mol/l amiloride. The same procedure was used in the case of the novel compounds.

Row | IC50 [nM] | Structure (SMILES)
1 | 200 | COc1cc(OC)c(C(F)(F)F)cc1C(=O)N=C(N)N [Example 7, 2,4-Dimethoxy-5-trifluoromethylbenzoylguanidine hydrochloride]
2 | 17 | COc1c(I)cc(C(F)(F)F)cc1C(=O)N=C(N)N [Example 2, 2-Methoxy-3-iodo-5-trifluoromethylbenzoylguanidine hydrochloride]
3 | > 1000 | COc1cc(C)ccc1C(=O)N=C(N)N [Example 5, 2-Methoxy-4-methylbenzoylguanidine hydrochloride]
4 | 1000 | COc1c(C(=O)N=C(N)N)cc(C(C)(C)C)cc1C(C)(C)C [Example 6, 3,5-Bis-tert-butyl-2-methoxybenzoylguanidine hydrochloride]
5 | 53 | COc1cc(C(F)(F)F)cc(C(=O)N=C(N)N)c1OC [Example 1, 2,3-Dimethoxy-5-trifluoromethylbenzoylguanidine hydrochloride]
